Measurements published in US6747027B1, “Thiol sulfonamide metalloprotease inhibitors” (Pharmacia Corporation, priority 1996, dated 2004).
Counter-ions that a name gives are not always drawn.

Experiments:
[1] = biological target: T1, recombinant human MMP-1 (Homo sapiens, UniProt P03956); assay: In vitro metalloprotease inhibition, fluorogenic peptide assay (MMP-1); assay type: biochemical; conditions: recombinant human MMP-1, APMA activated; fluorogenic MCA peptide substrate 4 uM; pH 7.5, room temperature
T1 construct: made in house; host or cells: transfected HT-1080 cells (provided by Dr. Howard Welgus, Washington University)
T1 sequence (P03956 100-469): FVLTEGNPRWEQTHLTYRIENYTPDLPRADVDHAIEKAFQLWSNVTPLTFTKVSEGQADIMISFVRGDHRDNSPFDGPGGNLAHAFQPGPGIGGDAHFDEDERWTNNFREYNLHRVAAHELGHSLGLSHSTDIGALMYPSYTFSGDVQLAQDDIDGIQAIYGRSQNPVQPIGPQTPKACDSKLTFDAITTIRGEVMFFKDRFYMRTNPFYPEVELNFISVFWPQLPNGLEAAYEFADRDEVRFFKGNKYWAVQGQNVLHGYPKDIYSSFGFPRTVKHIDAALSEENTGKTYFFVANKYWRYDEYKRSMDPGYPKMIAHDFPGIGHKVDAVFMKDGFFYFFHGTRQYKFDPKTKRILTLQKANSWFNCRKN
Experimental: (§1) Certain of the compounds prepared in the manner described in Examples 1 to 223 were tested for activity by an in vitro assay. Following the procedures of Knight et al., FEBS Lett. 296(3):263 (1992). Briefly, 4-aminophenylmercuric acetate (APMA) or trypsin activated MMPs were incubated with various concentrations of the inhibitor compound at room temperature for 5 minutes (0.02% 2-mercapto-ethanol added to buffer for thiol compounds with 5 minutes or overnight incubation). More specifically, recombinant human MMP-13 and MMP-1 enzymes were prepared in laboratories of the inventors' employer. MMP-13 was expressed in baculovirus as a proenzyme, and purified first over a heparin agarose column and then over a chelating zinc chloride column. The proenzyme was activated by APMA for use in the assay. MMP-1 expressed in transfected HT-1080 was provided by Dr. Howard Welgus of Washington University, St. Louis, Mo. The enzyme was also activated using APMA and was then purified over a hydroxamic acid column.
(§2) The enzyme substrate is a methoxycoumarin-containing polypeptide having the following sequence:
(§3) MCA-ProLeuGlyLeuDpaAlaArgNH^2, wherein MCA is methoxycoumarin and Dpa is 3-(2,4-dinitrophenyl)-L-2,3-diaminopropionyl alanine. This substrate is commercially available from Baychem as product M-1895.
(§4) The buffer used for assays contained 100 mM Tris-HCl, 100 mM NaCl, 10 mM CaCl2 and 0.05 percent polyethyleneglycol(23) lauryl ether at a pH value of 7.5. Assays were carried out at room temperature, and dimethyl sulfoxide (DMSO) at a final concentration of 1 percent was used to dissolve inhibitor compound.
(§5) The assayed inhibitor compound in DMSO/buffer solution was compared to an equal amount of DMSO/buffer with no inhibitor as control using microfluor™ white plates (Dynatech). The inhibitor or control solution was maintained in the plate for 10 minutes and the substrate was added to provide a final concentration of 4 uM.
(§6) In the absence of inhibitor activity, a fluorogenic peptide is cleaved at the gly-leu peptide bond, separating the highly fluorogenic peptide from a 2.4-dinitrophenyl quencher, resulting in an increase of fluorescence intensity (excitation at 328 nm/emmision at 415 nm). Inhibition was measured as a reduction in fluorescent intensity as a function of inhibitor concentration, using a Perkin Elmer L550 plate reader. The IC50 values were calculated from those values. The results are set forth in the Inhibition Table below, reported in terms of IC50 to three significant figures.

[2] = biological target: T2, recombinant human MMP-13 (Homo sapiens, UniProt P45452); assay: In vitro metalloprotease inhibition, fluorogenic peptide assay (MMP-13); assay type: biochemical; conditions: recombinant human MMP-13, APMA activated; fluorogenic MCA peptide substrate 4 uM; pH 7.5, room temperature
T2 construct: made in house
Experimental: as §1, §2, §3, §4, §5, §6

Structure (SMILES)	IC50 [1]	IC50 [2]
CCCCOc1ccc(S(=O)(=O)N(CCN2CCCCC2)[C@H](C)CS)cc1 [Example 46, N-(2-Mercapto-1R-methylethyl)-N-[2-(1-piperidino)ethyl]-4-(n-butoxy)benzenesulfonamide]	3500 nM	4 nM
CCCCOc1ccc(S(=O)(=O)N(CCN2CCCC2)[C@H](C)CS)cc1 [Example 47C, N-(2-Mercapto-1R-methylethyl)-N-[2-(1-pyrrolidino)ethyl]-4-(n-butoxy)benzenesulfonamide]	4830 nM	4.47 nM
CCCCCN([C@H](C)CS)S(=O)(=O)c1ccc(OCCCC)cc1 [Example 48C, N-(2-Mercapto-1R-methylethyl)-N-pentyl-4-(n-butoxy)benzenesulfonamide]	> 10000 nM	45 nM
C[C@H](CS)N(Cc1ccccc1)S(=O)(=O)CCCSc1ccccc1 [Example 51, N-(2-Mercapto-1R-methylethyl)-N-benzyl(3-thiophenylpropyl)sulphonamide]	> 10000 nM	340 nM
C[C@H](CS)N(CCN1CCCCC1)S(=O)(=O)CCCSc1ccccc1 [Example 52, N-(2-Mercapto-1R-methylethyl)-N-[2-(1-piperidino)ethyl](3-thiophenylpropyl)sulphonamide]	> 10000 nM	45 nM
CCCCCc1ccc(S(=O)(=O)N(C)[C@H](C)CS)cc1 [Example 53, N-(2-Mercapto-1R-methylethyl)-N-methyl-4-(n-pentyl)benzenesulfonamide]	> 10000 nM	11 nM
CCCCCc1ccc(S(=O)(=O)N(CCN2CCOCC2)[C@H](C)CS)cc1 [Example 54, N-(2-Mercapto-1R-methylethyl)-N-[2-(4-morpholino)ethyl]-4-(n-pentyl)benzenesulfonamide]	9000 nM	7 nM
COc1ccc(S(=O)(=O)N(Cc2ccccc2)C(CS)Cc2ccccc2)cc1 (stereo not shown) [Example 57, N-(2-Mercapto-1R,S-phenylmethyl)-N-phenylmethyl-4-methoxybenzenesulfonamide]	> 10000 nM	5000 nM
COC(=O)[C@H](CSSC[C@H](NS(=O)(=O)c1ccc(OC)cc1)C(=O)OC)NS(=O)(=O)c1ccc(OC)cc1 [Example 58]	6000 nM	200 nM
C[C@H](CS)NS(=O)(=O)c1ccccc1 [Example 82, N-(2-mercapto-1R-methylethyl)-benzenesulfonamide]	> 10000 nM	1200 nM
CC(=O)Nc1ccc(S(=O)(=O)N[C@H](C)CS)cc1 [Example 84, N-(2-mercapto-1R-methylethyl)-4-N-acetylsulfanilamide]	> 10000 nM	> 10000 nM
C[C@H](CS)NS(=O)(=O)c1ccc(N=Nc2ccccc2)cc1 [Example 89, N-(2-mercapto-1R-methylethyl)-4-phenylazobenzenesulfonamide]	> 10000 nM	90 nM
C[C@H](CS)N(CCN1CCCCC1)S(=O)(=O)c1ccc(Sc2ccccc2)cc1 [Example 92D, N-(2-Mercapto-1R-methylethyl)-N-[2-(1-piperidino)ethyl]-4-(thiophenyl)benzenesulfonamide Hydrochloride]	6000 nM	0.7 nM
CCCCCc1ccc(S(=O)(=O)N[C@@H](CS)C(N)=O)cc1 [Example 96, N-[4-(n-Pentyl)-phenyl]sulfonyl-L-cysteine-NH2]	> 10000 nM	17 nM
COc1ccc(S(=O)(=O)N[C@H](C)CS)cc1OC [Example 100]	> 10000 nM	> 10000 nM
C[C@H](CS)NS(=O)(=O)c1ccc(Sc2ccccc2)cc1 [Example 101]	> 10000 nM	30 nM
C[C@H](CS)N(CC(=O)O)S(=O)(=O)c1ccc(Sc2ccccc2)cc1 [Example 103]	> 10000 nM	17 nM
CCCCOc1ccc(S(=O)(=O)NC(CO)CS)cc1 (stereo not shown) [Example 110]	> 10000 nM	1600 nM
COCCOc1ccc(S(=O)(=O)N(CCN2CCOCC2)[C@H](C)CS)cc1 [Example 114]	> 10000 nM	45 nM
CC(=O)SC[C@@H](C)N(CCN1CCOCC1)S(=O)(=O)c1ccc(Oc2ccc(CCC(=O)OC(C)(C)C)cc2)cc1 [Example 115]	> 10000 nM	220 nM
C[C@H](CS)N(CCN1CCOCC1)S(=O)(=O)c1ccc(Oc2ccc(CCC(=O)O)cc2)cc1 [Example 117]	8000 nM	15 nM
C[C@H](CS)N(CCN1CCOCC1)S(=O)(=O)c1ccc(Oc2ccc(CCC(=O)O)cc2)cc1 [Example 118]	7000 nM	14 nM
Cc1ccccc1-c1ccc(S(=O)(=O)N(C)[C@H](C)CS)cc1 [Example 122]	> 10000 nM	4250 nM
COc1cccc(-c2ccc(S(=O)(=O)N(C)[C@H](C)CS)cc2)c1 [Example 123]	> 10000 nM	115 nM

The next lines start with the values.

IC50 [1]	IC50 [2]	Structure (SMILES)
300 nM	17.5 nM	COc1ccc(S(=O)(=O)N(Cc2cccnc2)[C@H](C)CS)cc1 [Example 49, N-(2-Mercapto-1-R-methylethyl)-N-(3-pyridylmethyl)-4-methoxybenzenesulfonamide]
313 nM	0.71 nM	C[C@H](CS)N(C)S(=O)(=O)c1ccc(-c2ccccc2)cc1 [Example 55, N-(2-Mercapto-1R-methylethyl)-N-methyl-4-(phenyl)benzenesulfonamide]
1000 nM	13 nM	COC(=O)[C@H](CSSC[C@@H](C(=O)OC)N(C)S(=O)(=O)c1ccc(OC)cc1)N(C)S(=O)(=O)c1ccc(OC)cc1 [Example 59]
300 nM	2500 nM	C[C@H](CS)NS(=O)(=O)c1ccc(F)cc1 [Example 63, N-(2-mercapto-1R-methylethyl)-4-fluorobenzenesulfonamide]
1000 nM	445 nM	C[C@H](CS)NS(=O)(=O)c1ccc(Br)cc1 [Example 65, N-(2-mercapto-1R-methylethyl)-4-bromobenzenesulfonamide]
5000 nM	1000 nM	C[C@H](CS)NS(=O)(=O)c1ccc(OC(F)(F)F)cc1 [Example 75, N-(2-mercapto-1R-methylethyl)-4-(trifluoromethoxy)-benzenesulfonamide]
3500 nM	8800 nM	C[C@H](CS)NS(=O)(=O)c1ccc(C#N)cc1 [Example 76, N-(2-mercapto-1R-methylethyl)-4-cyanobenzenesulfonamide]
800 nM	20 nM	NC(=O)[C@H](CS)NS(=O)(=O)c1ccc(I)cc1 [Example 95, N-(4-Iodophenyl)sulfonyl-L-cysteine-NH2]
900 nM	31.3 nM	CCCCN([C@H](C)CS)S(=O)(=O)c1ccc(OC)cc1 [Example 99]
4000 nM	2.7 nM	CCCCOc1ccc(S(=O)(=O)N(CCN2CCOCC2)[C@H](C)CS)cc1 [Example 107]
2000 nM	40 nM	COc1ccc(S(=O)(=O)N(Cc2ncc[nH]2)[C@H](C)CS)cc1 [Example 111]
4000 nM	150 nM	COc1ccc(S(=O)(=O)N(Cc2ccsc2)[C@H](C)CS)cc1 [Example 112]
125 nM	0.25 nM	C[C@H](CS)N(CCN1CCOCC1)S(=O)(=O)c1ccc(Oc2ccccc2)cc1 [Example 113]
2100 nM	< 0.5 nM	COc1ccc(-c2ccc(S(=O)(=O)N(C)[C@H](C)CS)cc2)cc1 [Example 124]
